Patent US8318731B2, “Pyrrolopyrimidines” (Janssen Pharmaceutica NV, priority 2007, dated 2012)

Columns and labels:
PLK4 (h) = target: T1, PLK4 (h) (Homo sapiens, UniProt O00444); experiment: PLK-4 human kinase scintillation proximity assay (SPA); type: biochemical; settings: 1 μM ATP, 60 minutes at r.t., read-out: PLK4 pIC50 (converted)
T1 sequence (O00444 1-970): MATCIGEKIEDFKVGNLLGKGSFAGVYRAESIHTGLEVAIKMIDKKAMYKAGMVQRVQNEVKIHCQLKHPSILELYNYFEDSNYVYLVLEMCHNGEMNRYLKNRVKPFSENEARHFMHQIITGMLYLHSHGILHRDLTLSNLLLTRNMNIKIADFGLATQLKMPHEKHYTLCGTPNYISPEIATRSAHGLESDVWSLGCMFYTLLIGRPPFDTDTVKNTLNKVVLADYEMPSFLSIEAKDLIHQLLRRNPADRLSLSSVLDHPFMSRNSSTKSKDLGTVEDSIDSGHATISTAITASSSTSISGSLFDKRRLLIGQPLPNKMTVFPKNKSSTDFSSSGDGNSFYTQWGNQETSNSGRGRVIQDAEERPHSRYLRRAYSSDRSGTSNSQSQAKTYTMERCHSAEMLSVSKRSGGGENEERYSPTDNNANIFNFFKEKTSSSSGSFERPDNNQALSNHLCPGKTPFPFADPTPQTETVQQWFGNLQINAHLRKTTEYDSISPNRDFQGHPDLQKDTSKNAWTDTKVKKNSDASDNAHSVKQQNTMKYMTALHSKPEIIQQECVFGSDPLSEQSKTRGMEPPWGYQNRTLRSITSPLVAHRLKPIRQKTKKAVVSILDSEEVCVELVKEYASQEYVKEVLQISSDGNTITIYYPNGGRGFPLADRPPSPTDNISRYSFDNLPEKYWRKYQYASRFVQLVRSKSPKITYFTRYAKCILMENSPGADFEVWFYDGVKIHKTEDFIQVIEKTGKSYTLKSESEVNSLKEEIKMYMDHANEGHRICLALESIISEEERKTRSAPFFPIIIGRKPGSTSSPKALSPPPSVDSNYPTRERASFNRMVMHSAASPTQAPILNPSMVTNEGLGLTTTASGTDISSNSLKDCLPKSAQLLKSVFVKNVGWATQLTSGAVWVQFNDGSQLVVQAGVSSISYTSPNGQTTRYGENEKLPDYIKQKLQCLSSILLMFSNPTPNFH
Description: The in vitro inhibition of a panel of kinases was assessed using either the scintillation proximity assay (SPA) as described by Cook, N. D. et al., Advances in Experimental Medicine and Biology (1991), 36; p. 525-528.
In the SPA technology the activity of the kinase of interest is measured using an appropriate biotinylated substrate that is incubated with the aforementioned kinase protein in the presence of (^33P) radiolabeled ATP. (^33P) Phosphorylation of the substrate is subsequently measured through binding of the phosphorylated substrate to streptavidine coated beads that are based on the scintillant poly(vinyl toluene) (PVT-Beads). The scintillation intensity is detected by imaging on Leadseeker.
All kinases are pre-diluted to a 10× working concentration prior to addition into the assay. The composition of the dilution buffer for each kinase is detailed below.
In a final reaction volume of 30 μl, PLK4 (h) (19 μg/ml) is incubated with 50 mM Hepes pH 8.0, 10 mM MgCl2, 50 mM NaCl, 1 mM NaF, 1 mM DTT, 10 μM of peptide Biotin-RPRGQRDSSYYWE-OH, 1 μM ATP and 2 nM [γ-^33P-ATP] (6.0 μCi/ml). After incubation of 60 minutes at r.t., the reaction is stopped by addition of 40 μL of stop solution containing 8.7 mM EDTA, BSA 0.17%, 0.17% Triton X-100, 1.7 mg/ml SPA beads (GE-healthcare). The plate is centrifuged and read for Scintillation imaging on Leadseeker.

HCT-116 = experiment: Cellular proliferation assay (Alamar blue), HCT-116; type: cell-based; settings: Homo sapiens; HCT-116 cells; 10% FCS; 72 h with compound; Alamar blue 4 h; read-out: pIC50 HCT-116 (converted)
Description: (§1) Cellular proliferation of these compounds was tested on a panel of different cell lines in the presence of 10% FCS serum (37° C. and 5% (v/v) CO2). In a first step these cells were seeded and incubated for 24 hours in the absence of compound. In the second step the cells were incubated for 72 hours with the compounds to be tested for 72 hours. The viable cell number was finally assessed in a standard Alamar blue cell viability assay.
(§2) The viable cell number was assessed by incubation for either 4 h (HCT-116, H1299) 6 h (U87-MG) or 24 h (A2780, PC3, MDA-MB-231) with Alamar blue (Resazurin 9 μg/ml, K-Ferrocyanide 90 μM, K-Ferricyanide 90 μM) and the converted fluorescent product was quantified on a fluorescent plate readed (544 nm/590 nm). Effect of the compounds is calculated as of on control cells.

H1299 = experiment: Cellular proliferation assay (Alamar blue), H1299; type: cell-based; settings: Homo sapiens, NCI-H1299, H1299 cells; 10% FCS; 72 h with compound; Alamar blue 4 h; read-out: pIC50 H1299 (converted)
Description: as §1, §2

A2780 = experiment: Cellular proliferation assay (Alamar blue), A2780; type: cell-based; settings: Homo sapiens, A2780, A2780 cells; 10% FCS; 72 h with compound; Alamar blue 24 h; read-out: pIC50 A2780 (converted)
Description: as §1, §2

PC3 = experiment: Cellular proliferation assay (Alamar blue), PC3; type: cell-based; settings: Homo sapiens, PC-3, PC-3 cells; 10% FCS; 72 h with compound; Alamar blue 24 h; read-out: pIC50 PC-3 (converted)
Description: as §1, §2

MDA-MB-231 = experiment: Cellular proliferation assay (Alamar blue), MDA-MB-231; type: cell-based; settings: Homo sapiens, MDA-MB-231, MDA-MB-231 cells; 10% FCS; 72 h with compound; Alamar blue 24 h; read-out: pIC50 MDA/MB231 (converted)
Description: as §1, §2

| Structure (SMILES) | IC50 (PLK4 (h)) [µM] | IC50 (HCT-116) [µM] | IC50 (H1299) [µM] | IC50 (A2780) [µM] | IC50 (PC3) [µM] | IC50 (MDA-MB-231) [µM] |
| --- | --- | --- | --- | --- | --- | --- |
| COc1ccc2cc1OCC(=O)N(C)CC1CN(Cc3c[nH]c4ncnc(c34)N2)C1 [Compound 89] | 0.251 | > 10 | > 10 | > 10 | > 10 | > 10 |
| COc1cc2cc(c1OC)OCCCC(=O)N(C)CCN(C)Cc1c[nH]c3ncnc(c13)N2 [Compound 95] | > 10 | > 10 | > 10 | > 10 | > 10 | > 10 |
| CN1CCCN(C)C(=O)COc2cc(ccc2OCCOC2CCCC2)Nc2ncnc3[nH]cc(c23)C1 [Compound 99] | 0.0251 | 0.0631 | 0.0398 | – | 6.31 | > 10 |
| CN1CCCN(C)C(=O)CCCOc2cccc(c2)Nc2ncnc3[nH]cc(c23)C1 [Compound 32] | 0.501 | – | – | – | – | – |
| CN1CCN(c2ccc3cc2OCCCC(=O)N(C)CCN(C)Cc2c[nH]c4ncnc(c24)N3)CC1 [Compound 94] | 5.01 | > 10 | > 10 | > 10 | 10 | > 10 |
| CN1CCCN(C)C(=O)CCCOc2cc(cc(C(F)(F)F)c2)Nc2ncnc3[nH]cc(c23)C1 [Compound 83] | 5.01 | > 10 | 3.98 | > 10 | > 10 | > 10 |
| COc1ccc2cc1CCC(=O)N(C)CCCN(C)Cc1c[nH]c3ncnc(c13)N2 [Compound 55] | 0.794 | – | – | – | – | – |
| CN1CCCN(C)C(=O)COc2cc(ccc2OC2CCOC2)Nc2ncnc3[nH]cc(c23)C1 (centres unmarked) [Compound 135] | 0.158 | – | – | – | – | – |
| COc1ccc2cc1CN(C)[C@@H](CC(C)C)C(=O)N(C)CCCc1c[nH]c3ncnc(c13)N2 [Compound 52] | > 10 | – | – | – | – | – |
| COc1ccc2cc1CN(C)[C@@H](CO)C(=O)N(C)CCCc1c[nH]c3ncnc(c13)N2 [Compound 9] | > 10 | – | – | – | – | – |
| COc1ccc2cc1CN(C)[C@@H](Cc1ccccc1)C(=O)N(C)CCCc1c[nH]c3ncnc(c13)N2 [Compound 51] | > 10 | – | – | – | – | – |
| CN1CCCN(C)C(=O)COc2cc(ccc2OCc2ccccc2)Nc2ncnc3[nH]cc(c23)C1 [Compound 11] | 0.0501 | – | – | – | – | – |
| CN1CCN(C)C(=O)COc2cc(ccc2N2CCOCC2)Nc2ncnc3[nH]cc(c23)C1 [Compound 97] | 0.794 | > 10 | > 10 | > 10 | > 10 | > 10 |
| COc1cc2cc(c1OC)OCC(=O)N(C)CCN(C)Cc1c[nH]c3ncnc(c13)N2 [Compound 96] | 5.01 | > 10 | > 10 | > 10 | > 10 | > 10 |
| COc1cc2cc(c1OC)OCCCC(=O)N(C)CCCN(C)Cc1c[nH]c3ncnc(c13)N2 [Compound 69] | 2 | > 10 | > 10 | > 10 | > 10 | > 10 |
| CN1CCCN(C)C(=O)COc2cc(ccc2OCC(=O)N2CCOCC2)Nc2ncnc3[nH]cc(c23)C1 [Compound 117] | 0.0501 | > 10 | > 10 | 3.98 | > 10 | > 10 |
| COc1ccc2cc1OCCCC(=O)NCCCN(C)Cc1c[nH]c3ncnc(c13)N2 [Compound 25] | 0.631 | – | – | – | – | – |
| O=C1CCCOc2cc(ccc2N2CCOCC2)Nc2ncnc3[nH]cc(c23)CN2CCN1CC2 [Compound 110] | 7.94 | – | – | – | – | – |

Results, then the molecule that gave them:

| IC50 (PLK4 (h)) [µM] | IC50 (HCT-116) [µM] | IC50 (H1299) [µM] | IC50 (A2780) [µM] | IC50 (PC3) [µM] | IC50 (MDA-MB-231) [µM] | Structure (SMILES) |
| --- | --- | --- | --- | --- | --- | --- |
| 0.0501 | 1.58 | 0.631 | 1.58 | 2 | 6.31 | CC(C)Oc1ccc2cc1OCC(=O)N(C)CCCN(C)Cc1c[nH]c3ncnc(c13)N2 [Compound 100] |
| 3.98 | 6.31 | 2.51 | 6.31 | 5.01 | > 10 | CN1CCN(c2ccc3cc2OCCCC(=O)N(C)CCCN(C)Cc2c[nH]c4ncnc(c24)N3)CC1 [Compound 102] |
| 0.501 | – | – | – | – | – | CN1CCCN(C)C(=O)CCCOc2cc(ccc2Cl)Nc2ncnc3[nH]cc(c23)C1 [Compound 43] |
| > 10 | > 10 | > 10 | > 10 | > 10 | > 10 | CN1CCN(c2ccc3cc2OCCCC(=O)N2CCN(CC2)Cc2c[nH]c4ncnc(c24)N3)CC1 [Compound 109] |
| > 10 | > 10 | 6.31 | > 10 | > 10 | > 10 | CN1CCN(C)C(=O)CCCCOc2cc(cc(C(F)(F)F)c2)Nc2ncnc3[nH]cc(c23)C1 [Compound 92] |
| 6.31 | > 10 | 1.26 | > 10 | > 10 | > 10 | CN1CCN(C)C(=O)CCCOc2cc(cc(C(F)(F)F)c2)Nc2ncnc3[nH]cc(c23)C1 [Compound 93] |
| 0.0251 | 1.58 | 3.16 | 0.794 | > 10 | > 10 | CN1CCCN(C)C(=O)COc2cc(ccc2OCC(=O)NC2CCCC2)Nc2ncnc3[nH]cc(c23)C1 [Compound 91] |
| 0.158 | 0.794 | 1.58 | 1 | > 10 | > 10 | CN1CCCN(C)C(=O)COc2cc(ccc2NC(=O)Nc2cc(Cl)cc(Cl)c2)Nc2ncnc3[nH]cc(c23)C1 [Compound 115] |
| 0.0398 | 1.58 | 0.794 | 1.58 | 2 | 7.94 | CCCOc1ccc2cc1OCC(=O)N(C)CCCN(C)Cc1c[nH]c3ncnc(c13)N2 [Compound 101] |
| 7.94 | > 10 | > 10 | > 10 | > 10 | > 10 | CN1CCN(c2ccc3cc2OCCCCC(=O)N2CCN(CC2)Cc2c[nH]c4ncnc(c24)N3)CC1 [Compound 108] |
| > 10 | – | – | – | – | – | COc1ccc2cc1OCC(=O)N[C@H](Cc1ccccc1)CN(C)CCCc1c[nH]c3ncnc(c13)N2 [Compound 39] |
| 0.0316 | – | – | – | – | – | CN1CCCN(C)C(=O)COc2cc(ccc2OC2CCCC2)Nc2ncnc3[nH]cc(c23)C1 [Compound 90] |
